The source of these data is ChEMBL document CHEMBL1201862, “PubChem BioAssay data set” (2004).

Active and inactive are the calls of the source.

The test system of one experiment is INS1. In words: beta cell apoptosis inhibitors, cytokine rescue, dose response, luminescence, retest (AID 449756).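 Note: cell death triggered by IL-1 beta plus TNF-alpha plus IFN-gamma mixture; protective hits raise ATP signal compared with cytokine alone wells.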 The note with it: Rattus norvegicus. The format is functional, cell-based.
For a further experiment, the system named is Vero. In words: Vero cell cytotoxicity, cytotoxicity control for flavivirus capping enzyme inhibitors (AID 588742). The format is functional. The note with it: Chlorocebus sabaeus.
For a further experiment, the target named is T1, Protein RecA (Mycobacterium tuberculosis, UniProt P9WHJ3).
T1 sequence (P9WHJ3 whole entry): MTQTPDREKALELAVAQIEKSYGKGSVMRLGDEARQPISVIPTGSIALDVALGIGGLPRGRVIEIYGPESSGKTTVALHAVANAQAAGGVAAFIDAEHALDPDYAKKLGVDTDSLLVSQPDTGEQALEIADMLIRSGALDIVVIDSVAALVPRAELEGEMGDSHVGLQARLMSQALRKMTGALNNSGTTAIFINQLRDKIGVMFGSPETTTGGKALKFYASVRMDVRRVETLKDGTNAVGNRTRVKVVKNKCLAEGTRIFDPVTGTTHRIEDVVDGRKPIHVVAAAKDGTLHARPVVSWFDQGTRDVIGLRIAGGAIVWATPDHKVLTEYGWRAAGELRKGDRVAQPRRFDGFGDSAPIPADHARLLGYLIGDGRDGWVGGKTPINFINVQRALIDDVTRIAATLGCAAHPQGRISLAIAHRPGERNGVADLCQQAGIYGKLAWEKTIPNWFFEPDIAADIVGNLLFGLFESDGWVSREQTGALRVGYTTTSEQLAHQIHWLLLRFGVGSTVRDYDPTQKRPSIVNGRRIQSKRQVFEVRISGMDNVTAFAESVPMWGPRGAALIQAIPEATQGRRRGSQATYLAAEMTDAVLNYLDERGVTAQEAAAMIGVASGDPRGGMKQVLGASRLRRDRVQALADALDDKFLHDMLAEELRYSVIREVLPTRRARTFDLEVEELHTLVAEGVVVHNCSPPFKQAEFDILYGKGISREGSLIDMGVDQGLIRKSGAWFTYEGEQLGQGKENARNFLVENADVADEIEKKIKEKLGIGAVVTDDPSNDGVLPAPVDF
As to the kind of experiment: Fluorescence Cell-Free Homogeneous Dose Retest to Identify Inhibitors of RecA-Intein Splicing Activity. [Related pubchem assays (depositor defined):AID2097, AID2223, AID489010, AID492950]. The format is functional.

The target of experiment [1] is T2, Replicative DNA helicase DnaB (Mycobacterium tuberculosis, UniProt P9WMR3).
T2 sequence (P9WMR3 whole entry): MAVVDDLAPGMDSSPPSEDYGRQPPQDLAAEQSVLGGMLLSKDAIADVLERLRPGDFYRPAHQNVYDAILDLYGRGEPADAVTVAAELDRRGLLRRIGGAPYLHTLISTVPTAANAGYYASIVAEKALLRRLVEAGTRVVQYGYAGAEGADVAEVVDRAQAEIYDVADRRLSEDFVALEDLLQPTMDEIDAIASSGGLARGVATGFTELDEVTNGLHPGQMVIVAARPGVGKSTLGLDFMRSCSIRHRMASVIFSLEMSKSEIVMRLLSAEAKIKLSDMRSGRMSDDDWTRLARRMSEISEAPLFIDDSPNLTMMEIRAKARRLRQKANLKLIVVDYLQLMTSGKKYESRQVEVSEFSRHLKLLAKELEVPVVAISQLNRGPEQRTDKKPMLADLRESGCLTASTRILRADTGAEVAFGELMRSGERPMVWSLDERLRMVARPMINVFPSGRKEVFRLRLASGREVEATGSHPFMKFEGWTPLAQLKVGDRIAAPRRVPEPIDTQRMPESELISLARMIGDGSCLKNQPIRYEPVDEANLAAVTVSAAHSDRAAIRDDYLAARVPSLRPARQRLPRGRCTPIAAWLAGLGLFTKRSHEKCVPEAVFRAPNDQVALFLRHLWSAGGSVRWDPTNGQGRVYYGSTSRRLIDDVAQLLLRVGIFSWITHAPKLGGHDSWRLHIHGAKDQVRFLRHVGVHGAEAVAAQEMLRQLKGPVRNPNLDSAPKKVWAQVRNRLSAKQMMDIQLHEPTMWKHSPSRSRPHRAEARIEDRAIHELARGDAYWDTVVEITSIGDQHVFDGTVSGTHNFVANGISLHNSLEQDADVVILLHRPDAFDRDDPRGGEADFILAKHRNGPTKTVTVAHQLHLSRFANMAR
In words: DnaB intein splicing inhibitors, dose response, biochemical, cell-free fluorescence (AID 449749). The format is functional.

For experiment [2], the target named is T3, Heat shock factor protein 1 (Mus musculus, UniProt P38532).
T3 sequence (P38532 whole entry): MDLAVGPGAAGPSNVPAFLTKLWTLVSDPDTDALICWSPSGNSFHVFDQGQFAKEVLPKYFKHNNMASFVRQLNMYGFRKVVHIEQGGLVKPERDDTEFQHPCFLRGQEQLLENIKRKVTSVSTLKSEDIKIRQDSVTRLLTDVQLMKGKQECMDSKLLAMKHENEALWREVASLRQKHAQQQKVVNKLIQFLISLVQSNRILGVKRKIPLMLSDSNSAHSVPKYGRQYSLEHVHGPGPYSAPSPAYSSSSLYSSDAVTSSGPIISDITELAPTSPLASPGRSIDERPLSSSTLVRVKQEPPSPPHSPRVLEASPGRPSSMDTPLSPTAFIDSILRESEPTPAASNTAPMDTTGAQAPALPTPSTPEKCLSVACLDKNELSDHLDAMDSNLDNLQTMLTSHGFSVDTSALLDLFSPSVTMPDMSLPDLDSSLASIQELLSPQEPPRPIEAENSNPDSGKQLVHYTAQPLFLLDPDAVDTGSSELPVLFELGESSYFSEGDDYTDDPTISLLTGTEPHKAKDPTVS
In words: HSF1 potentiators in luciferase reporter cells, confirmation, cell-based, NIH3T3, luminescence, dose retest (AID 435004).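 Note: stress induced by proteasome inhibitor MG132 added 30 min after compound; luciferase reporter driven by HSF1 response element in NIH3T3 cells; actives raise luminescence as potentiators of the MG132 stress response.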 The format is functional. A general note: In a reporter assay the amount or activity of a reporter protein is the signal.

As a reminder, the AC50 is the midpoint of the concentration-response curve, whichever way the signal moves. What is called CC50 is the concentration that lowers cell viability or growth by half. Usually EC50 stands for the concentration needed to bring the measured effect to its halfway point. As to `Cc1ccc(NC2=CC(=O)C(=O)c3ccccc32)cc1`, the half-maximal activity concentration (AC50) in the experiment on INS1 was 2630 nM (active); in experiment [1], 971 nM (active). Further, in the experiment with Vero, the cytotoxic concentration (CC50) was 11400 nM (active). Also, the half-maximal effective concentration (EC50) is 999 nM (active) at Protein RecA and 7040 nM (active) in experiment [2].

In the case of `O=C(O)c1ccc(S(=O)(=O)/N=C2\C=C(Nc3ccccc3F)C(=O)c3ccccc32)cc1`, the AC50 with INS1 was 2610 nM (active); in experiment [1] it was 146 nM (active). The cytotoxic concentration (CC50) in the experiment on Vero is 26400 nM (active). Further, the 50% effective concentration (EC50) at Protein RecA is 66.3 nM (active); in experiment [2], > 260000 nM (inconclusive).
